Results reported in US12077503B2, “Substituted cyclic amides and their use as herbicides” (FMC CORPORATION, priority 2015, dated 2024).

Tests used:
Assay in all cases: Test C preemergence
Type in all cases: in vivo
[1] = test system: Galium (catchweed bedstraw, Galium aparine); conditions: for Plant response rating, Galium: scale 0 to 100, 0 no effect, 100 complete control
Procedure, shortened: (§1)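 Herbicidal effect, applied preemergence to sown seeds or postemergence to 1- to 4-leaf plants, was scored visually 13 to 15 d after application, 0 to 100 versus controls.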

[2] = test system: barnyardgrass (Echinochloa crus-galli); conditions: for Plant response rating, Barnyardgrass: scale 0 to 100, 0 no effect, 100 complete control
Procedure, shortened: as §1

[3] = test system: blackgrass (Alopecurus myosuroides); conditions: for Plant response rating, Blackgrass: scale 0 to 100, 0 no effect, 100 complete control
Procedure, shortened: as §1

[4] = test system: corn (Zea mays); conditions: for Plant response rating, Corn: scale 0 to 100, 0 no effect, 100 complete control
Procedure, shortened: as §1

[5] = test system: crabgrass, large (large crabgrass, Digitaria sanguinalis); conditions: for Plant response rating, Crabgrass, Large: scale 0 to 100, 0 no effect, 100 complete control
Procedure, shortened: as §1

[6] = test system: foxtail, giant (giant foxtail, Setaria faberii); conditions: for Plant response rating, Foxtail, Giant: scale 0 to 100, 0 no effect, 100 complete control
Procedure, shortened: as §1

[7] = test system: johnsongrass (Sorghum halepense); conditions: for Plant response rating, Johnsongrass: scale 0 to 100, 0 no effect, 100 complete control
Procedure, shortened: as §1

[8] = test system: lambsquarters (Chenopodium album); conditions: for Plant response rating, Lambsquarters: scale 0 to 100, 0 no effect, 100 complete control
Procedure, shortened: as §1

[9] = test system: morningglory (Ipomoea coccinea); conditions: for Plant response rating, Morningglory: scale 0 to 100, 0 no effect, 100 complete control
Procedure, shortened: as §1

[10] = test system: nutsedge, yellow (yellow nutsedge, Cyperus esculentus); conditions: for Plant response rating, Nutsedge, Yellow: scale 0 to 100, 0 no effect, 100 complete control
Procedure, shortened: as §1

[11] = test system: oilseed rape (Brassica napus); conditions: for Plant response rating, Oilseed Rape: scale 0 to 100, 0 no effect, 100 complete control
Procedure, shortened: as §1

[12] = test system: pigweed (Amaranthus retroflexus); conditions: for Plant response rating, Pigweed: scale 0 to 100, 0 no effect, 100 complete control
Procedure, shortened: as §1

[13] = test system: ragweed (common ragweed, Ambrosia elatior); conditions: for Plant response rating, Ragweed: scale 0 to 100, 0 no effect, 100 complete control
Procedure, shortened: as §1

[14] = test system: ryegrass, Italian (Italian ryegrass, Lolium multiflorum); conditions: for Plant response rating, Ryegrass, Italian: scale 0 to 100, 0 no effect, 100 complete control
Procedure, shortened: as §1

[15] = test system: soybean (Glycine max); conditions: for Plant response rating, Soybean: scale 0 to 100, 0 no effect, 100 complete control
Procedure, shortened: as §1

[16] = test system: velvetleaf (Abutilon theophrasti); conditions: for Plant response rating, Velvetleaf: scale 0 to 100, 0 no effect, 100 complete control
Procedure, shortened: as §1

[17] = test system: waterhemp (common waterhemp, Amaranthus rudis); conditions: for Plant response rating, Waterhemp: scale 0 to 100, 0 no effect, 100 complete control
Procedure, shortened: as §1

[18] = test system: wheat (winter wheat, Triticum aestivum); conditions: for Plant response rating, Wheat: scale 0 to 100, 0 no effect, 100 complete control
Procedure, shortened: as §1

[19] = 31 g ai/ha, 0 is no effect, 100 is complete control

SMILES: CN1CC(c2cccc(OC(F)F)c2)C(C(=O)Nc2ccccc2S(C)(=O)=O)C1=O (stereo not drawn) [Compound 523]
- Plant response rating (scale of 0 to 100), Galium [1, 19]: 0
- Plant response rating, Galium ([1]; 62 g ai/ha): 80
- Plant response rating, Galium ([1]; 125 g ai/ha): 80
- Plant response rating, Galium ([1]; 250 g ai/ha): 80
- Plant response rating (scale of 0 to 100), Barnyardgrass [2, 19]: 65
- Plant response rating, Barnyardgrass ([2]; 62 g ai/ha): 95
- Plant response rating, Barnyardgrass ([2]; 125 g ai/ha): 98
- Plant response rating, Barnyardgrass ([2]; 250 g ai/ha): 100
- Plant response rating (scale of 0 to 100), Blackgrass [3, 19]: 0
- Plant response rating, Blackgrass ([3]; 62 g ai/ha): 0
- Plant response rating, Blackgrass ([3]; 125 g ai/ha): 20
- Plant response rating, Blackgrass ([3]; 250 g ai/ha): 90
- Plant response rating (scale of 0 to 100), Corn [4, 19]: 0
- Plant response rating, Corn ([4]; 62 g ai/ha): 20
- Plant response rating, Corn ([4]; 125 g ai/ha): 65
- Plant response rating, Corn ([4]; 250 g ai/ha): 85
- Plant response rating (scale of 0 to 100), Crabgrass, Large [5, 19]: 90
- Plant response rating, Crabgrass, Large ([5]; 62 g ai/ha): 95
- Plant response rating, Crabgrass, Large ([5]; 125 g ai/ha): 100
- Plant response rating, Crabgrass, Large ([5]; 250 g ai/ha): 98
- Plant response rating (scale of 0 to 100), Foxtail, Giant [6, 19]: 85
- Plant response rating, Foxtail, Giant ([6]; 62 g ai/ha): 90
- Plant response rating, Foxtail, Giant ([6]; 125 g ai/ha): 98
- Plant response rating, Foxtail, Giant ([6]; 250 g ai/ha): 98
- Plant response rating (scale of 0 to 100), Johnsongrass [7, 19]: 0
- Plant response rating, Johnsongrass ([7]; 62 g ai/ha): 30
- Plant response rating, Johnsongrass ([7]; 125 g ai/ha): 60
- Plant response rating, Johnsongrass ([7]; 250 g ai/ha): 70
- Plant response rating (scale of 0 to 100), Lambsquarters [8, 19]: 20
- Plant response rating, Lambsquarters ([8]; 62 g ai/ha): 70
- Plant response rating, Lambsquarters ([8]; 125 g ai/ha): 70
- Plant response rating, Lambsquarters ([8]; 250 g ai/ha): 65
- Plant response rating (scale of 0 to 100), Morningglory [9, 19]: 20
- Plant response rating, Morningglory ([9]; 62 g ai/ha): 35
- Plant response rating, Morningglory ([9]; 125 g ai/ha): 25
- Plant response rating, Morningglory ([9]; 250 g ai/ha): 35
- Plant response rating (scale of 0 to 100), Nutsedge, Yellow [10, 19]: 0
- Plant response rating, Nutsedge, Yellow ([10]; 62 g ai/ha): 0
- Plant response rating, Nutsedge, Yellow ([10]; 125 g ai/ha): 0
- Plant response rating, Nutsedge, Yellow ([10]; 250 g ai/ha): 40
- Plant response rating (scale of 0 to 100), Oilseed Rape [11, 19]: 0
- Plant response rating, Oilseed Rape ([11]; 62 g ai/ha): 0
- Plant response rating, Oilseed Rape ([11]; 125 g ai/ha): 30
- Plant response rating, Oilseed Rape ([11]; 250 g ai/ha): 60
- Plant response rating (scale of 0 to 100), Pigweed [12, 19]: 75
- Plant response rating, Pigweed ([12]; 62 g ai/ha): 100
- Plant response rating, Pigweed ([12]; 125 g ai/ha): 90
- Plant response rating, Pigweed ([12]; 250 g ai/ha): 90
- Plant response rating (scale of 0 to 100), Ragweed [13, 19]: 5
- Plant response rating, Ragweed ([13]; 62 g ai/ha): 15
- Plant response rating, Ragweed ([13]; 125 g ai/ha): 40
- Plant response rating, Ragweed ([13]; 250 g ai/ha): 70
- Plant response rating (scale of 0 to 100), Ryegrass, Italian [14, 19]: 0
- Plant response rating, Ryegrass, Italian ([14]; 62 g ai/ha): 5
- Plant response rating, Ryegrass, Italian ([14]; 125 g ai/ha): 5
- Plant response rating, Ryegrass, Italian ([14]; 250 g ai/ha): 20
- Plant response rating (scale of 0 to 100), Soybean [15, 19]: 10
- Plant response rating, Soybean ([15]; 62 g ai/ha): 25
- Plant response rating, Soybean ([15]; 125 g ai/ha): 30
- Plant response rating, Soybean ([15]; 250 g ai/ha): 45
- Plant response rating (scale of 0 to 100), Velvetleaf [16, 19]: 0
- Plant response rating, Velvetleaf ([16]; 62 g ai/ha): 0
- Plant response rating, Velvetleaf ([16]; 125 g ai/ha): 30
- Plant response rating, Velvetleaf ([16]; 250 g ai/ha): 45
- Plant response rating (scale of 0 to 100), Waterhemp [17, 19]: 55
- Plant response rating, Waterhemp ([17]; 62 g ai/ha): 65
- Plant response rating, Waterhemp ([17]; 125 g ai/ha): 65
- Plant response rating, Waterhemp ([17]; 250 g ai/ha): 80
- Plant response rating (scale of 0 to 100), Wheat [18, 19]: 0
- Plant response rating, Wheat ([18]; 62 g ai/ha): 30
- Plant response rating, Wheat ([18]; 125 g ai/ha): 50
- Plant response rating, Wheat ([18]; 250 g ai/ha): 80
